Reference: ChEMBL document CHEMBL5550185, “Targeting hTERT Promoter G-Quadruplex DNA Structures with Small-Molecule Ligand to Downregulate hTERT Expression for Triple-Negative Breast Cancer Therapy” (J Med Chem, 2024)
pIC50, pKd: −log10 of the molar value. Calls of active or inactive are those of the source. The rule behind the calls is not given here.

Tests used:
[1] = system: Quadruplex DNA; assay: Binding affinity to RET G4 DNA (unknown origin) assessed as thermal stability by measuring change in melting temperature at 400 uM […]; assay type: nucleic-acid assay
[2] = system: Quadruplex DNA; assay: Binding affinity to CKIT-2 G4 DNA (unknown origin) assessed as thermal stability by measuring change in melting temperature at 400 uM […]; assay type: nucleic-acid assay
[3] = system: Quadruplex DNA; assay: Binding affinity to CKIT-2 G4 DNA (unknown origin) assessed as change in gibbs free energy at 400 uM by ITC analysis; assay type: nucleic-acid assay
[4] = system: Quadruplex DNA; assay: Binding affinity to Bcl-2 G4 DNA (unknown origin) assessed as change in gibbs free energy at 400 uM by ITC analysis; assay type: nucleic-acid assay
[5] = target: Quadruplex DNA; assay: Binding affinity to Telo21 G4 DNA (unknown origin) assessed as dissociation constant by ITC analysis; assay type: nucleic-acid assay
[6] = Selectivity ratio of binding affinity to human TERT G4 DNA to binding affinity to VEGF G4 DNA (unknown origin)
[7] = Selectivity ratio of binding affinity to human TERT G4 DNA to binding affinity to 4a4t duplex DNA (unknown origin)
[8] = Drug localization in nucleus of telomerase-positive human MDA-MB-231 cells at 5 uM incubated for 10 mins by Hoechst 33342 staining based confocal microscopic analysis; assay type: ADME, subcellular; conditions: mda-mb-231, 10 min
[9] = system: MDA-MB-231; assay: Cytotoxicity against human MDA-MB-231 cells without hTERT overexpression assessed as inhibition of cell growth measured after 48 hrs by MTT assay; assay type: functional, cell-based; conditions: MDA-MB-231, 48 h
[10] = system: MDA-MB-231; assay: Inhibition of TRF2 protein expression in human MDA-MB-231 cells measured after 48 hrs by Western blot analysis; assay type: functional, cell-based; conditions: dose 0-1.5 µM
[11] = target: Telomerase reverse transcriptase (Homo sapiens) (UniProt O14746); assay: Inhibition of telomerase activity in human MDA-MB-231 cells at >=1 uM incubated for 30 mins by SYBR Gold staining based TRAP assay; assay type: cell-based
Chain of Telomerase reverse transcriptase (Homo sapiens) (O14746 whole entry): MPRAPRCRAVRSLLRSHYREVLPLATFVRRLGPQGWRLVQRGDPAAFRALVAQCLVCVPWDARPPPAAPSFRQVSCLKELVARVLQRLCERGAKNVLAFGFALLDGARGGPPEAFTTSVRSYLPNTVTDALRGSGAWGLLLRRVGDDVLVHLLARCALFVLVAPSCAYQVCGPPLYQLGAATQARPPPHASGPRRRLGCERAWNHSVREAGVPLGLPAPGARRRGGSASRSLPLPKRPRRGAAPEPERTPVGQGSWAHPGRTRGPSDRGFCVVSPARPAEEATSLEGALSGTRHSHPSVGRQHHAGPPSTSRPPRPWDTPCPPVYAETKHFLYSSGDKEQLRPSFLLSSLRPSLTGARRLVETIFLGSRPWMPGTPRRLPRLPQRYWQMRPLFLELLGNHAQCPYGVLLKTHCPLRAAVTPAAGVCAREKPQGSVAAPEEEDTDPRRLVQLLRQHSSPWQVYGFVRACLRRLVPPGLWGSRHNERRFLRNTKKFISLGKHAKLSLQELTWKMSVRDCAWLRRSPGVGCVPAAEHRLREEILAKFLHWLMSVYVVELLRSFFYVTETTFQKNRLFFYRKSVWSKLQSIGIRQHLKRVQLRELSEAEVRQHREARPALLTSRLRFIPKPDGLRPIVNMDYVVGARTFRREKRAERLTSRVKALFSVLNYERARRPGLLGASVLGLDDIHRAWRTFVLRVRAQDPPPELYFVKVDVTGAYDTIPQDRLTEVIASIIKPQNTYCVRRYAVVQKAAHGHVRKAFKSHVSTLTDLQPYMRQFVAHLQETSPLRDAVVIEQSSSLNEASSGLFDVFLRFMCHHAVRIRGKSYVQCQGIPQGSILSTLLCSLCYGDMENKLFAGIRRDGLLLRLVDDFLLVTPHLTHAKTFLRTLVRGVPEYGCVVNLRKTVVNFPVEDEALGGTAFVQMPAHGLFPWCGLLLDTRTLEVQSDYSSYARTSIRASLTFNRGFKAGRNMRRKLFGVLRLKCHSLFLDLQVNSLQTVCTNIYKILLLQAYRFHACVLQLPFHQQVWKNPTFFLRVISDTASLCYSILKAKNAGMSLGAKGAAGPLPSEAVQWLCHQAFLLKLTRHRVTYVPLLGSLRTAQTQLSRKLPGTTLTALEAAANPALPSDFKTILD

[12] = system: MDA-MB-231; assay: Induction of cell cycle arrest in human MDA-MB-231 cells assessed as accumulation of cells at S phase at 0.5 to 1.5 uM measured after 48 hrs by 7-aminoactinomycin D/RNase staining based flow cytometry analysis (reference value: 23.4%); assay type: functional; conditions: dose 0.5-1.5 µM
[13] = system: MDA-MB-231; assay: Induction of mitochondrial dysfunction in human MDA-MB-231 cells assessed as downregulation of mitochondrial respiratory complex III-UQCRC2 expression incubated for 48 hrs by Western blot analysis; assay type: functional, cell-based; conditions: dose 0-1.5 µM
[14] = system: MDA-MB-231; assay: Downregulation of ND1 gene expression in human MDA-MB-231 cells at 1 uM measured after 48 hrs by RNA-seq analysis; assay type: functional, cell-based
[15] = Upregulation of TGFBR2 gene expression in human MDA-MB-231 cells assessed as fold change at 1 uM measured after 48 hrs by RNA-seq analysis relative to control; assay type: functional
[16] = Upregulation of CCNB2 gene expression in human MDA-MB-231 cells assessed as fold change at 1 uM measured after 48 hrs by RNA-seq analysis relative to control; assay type: functional
[17] = Upregulation of KLF2 gene expression in human MDA-MB-231 cells assessed as fold change at 1 uM measured after 48 hrs by RNA-seq analysis relative to control; assay type: functional
[18] = Upregulation of PLK4 gene expression in human MDA-MB-231 cells assessed as fold change at 1 uM measured after 48 hrs by RNA-seq analysis relative to control; assay type: functional
[19] = Upregulation of S1PR1 gene expression in human MDA-MB-231 cells assessed as fold change at 1 uM measured after 48 hrs by RNA-seq analysis relative to control; assay type: functional
[20] = Upregulation of MAPK13 gene expression in human MDA-MB-231 cells assessed as fold change at 1 uM measured after 48 hrs by RNA-seq analysis relative to control; assay type: functional
[21] = Upregulation of IL-1A gene expression in human MDA-MB-231 cells assessed as fold change at 1 uM measured after 48 hrs by RNA-seq analysis relative to control; assay type: functional
[22] = Toxicity in female Balb/c nude mouse xenografted with human MDA-MB-231 cells assessed as signs of ulcer at 2 to 5 mg/kg, iv administered via tail vein every 2 days for 16 days; assay type: organism-based; conditions: in vivo, 384 h, dose 2-5 mg/kg, time 16 day
[23] = system: MDA-MB-231; assay: Antitumor activity against human MDA-MB-231 cells xenografted in female Balb/c mouse assessed as reduction in tumor volume at 2 mg/kg, iv administered via tail vein every 2 days for 16 days relative to control; assay type: functional; set-up: scale not given: the % may be the effect or the level left; conditions: time 16 day
[24] = system: MDA-MB-231; assay: Antitumor activity against human MDA-MB-231 cells xenografted in iv dosed female Balb/c mouse assessed as nuclear fragmentation in tumor administered via tail vein every 2 days for 16 days by H and E staining based analysis; assay type: functional, organism-based; conditions: dose 2-5 mg/kg, time 16.0 day
[25] = system: MDA-MB-231; assay: Antitumor activity against human MDA-MB-231 cells xenografted in female Balb/c mouse assessed as inhibition of tumor cell proliferation at 5 mg/kg, iv administered via tail vein every 2 days for 16 days by Ki67 staining based assay; assay type: functional, organism-based; conditions: time 16.0 day
[26] = Toxicity in female Balb/c nude mouse xenografted with human MDA-MB-231 cells assessed as change in […] level at 2 to 5 mg/kg, iv administered via tail vein every 2 days for 16 days; assay type: organism-based; conditions: in vivo, 384 h, dose 2-5 mg/kg, time 16 day
[27] = Toxicity in female Balb/c nude mouse xenografted with human MDA-MB-231 cells assessed as change in WBC count at 2 to 5 mg/kg, iv administered via tail vein every 2 days for 16 days; assay type: organism-based; conditions: in vivo, 384 h, dose 2-5 mg/kg, time 16 day
[28] = Toxicity in female Balb/c nude mouse xenografted with human MDA-MB-231 cells assessed as change in lymphocyte count at 2 to 5 mg/kg, iv administered via tail vein every 2 days for 16 days; assay type: organism-based; conditions: in vivo, 384 h, dose 2-5 mg/kg, time 16 day
[29] = Toxicity in female Balb/c nude mouse xenografted with human MDA-MB-231 cells assessed as change in RBC count at 2 to 5 mg/kg, iv administered via tail vein every 2 days for 16 days; assay type: organism-based, Erythrocyte; conditions: in vivo, 384 h, dose 2-5 mg/kg, time 16 day
[30] = Toxicity in female Balb/c nude mouse xenografted with human MDA-MB-231 cells assessed as change in mean corpuscular volume at 2 to 5 mg/kg, iv administered via tail vein every 2 days for 16 days; assay type: organism-based; conditions: in vivo, 384 h, dose 2-5 mg/kg, time 16 day

Work on `C[n+]1c(/C=C/c2c[nH]c3ccccc23)cc(/C=C2\Sc3ccccc3N2CCCN2CCC(C(F)(F)F)CC2)c2ccccc21.[I-]` yielded a ΔTm [1] of 0.96 °C, a ΔTm [2] of 2.45 °C and a deltaG [3] of -7.05 kcal/mol. The deltaG [4] was -7.43 kcal/mol, the pKd [5] was 5.48 and the Selectivity ratio [6] was 2. The Selectivity ratio [7] was 3, the Drug uptake [8] was “Active” and the pIC50 [9] was 5.92. The inhibition [10] was “Dose-Dependent Effect”, the inhibition [11] was “Active” and the Activity [12] was 4.6%. The Activity [13] was “Dose-Dependent Effect”, the Activity [14] was “Active” and the “fold change (FC)” value [15] was greater than 2. For the same compound, the “fold change (FC)” value [16] was greater than 2, the “fold change (FC)” value [17] was greater than 2 and the “fold change (FC)” value [18] was greater than 2. For the same compound, the “fold change (FC)” value [19] was greater than 2, the “fold change (FC)” value [20] was greater than 2 and the “fold change (FC)” value [21] was greater than 2. For the same compound, the Activity [22] was “Non-Toxic”, the Activity [23] was 52.6% and the Activity [24] was “Dose-Dependent Effect”. The Activity [25] was “Active”, the Activity [26] was “Non-Toxic” and the Activity [27] was “Non-Toxic”. For the same compound, the Activity [28] was “Non-Toxic”, the Activity [29] was “Non-Toxic” and the Activity [30] was “Non-Toxic”.
